Measured values reported in ChEMBL document CHEMBL1201862, “PubChem BioAssay data set” (2004).
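A five-concentration, 48-hour dose response in 96-well plates underlies each endpoint, interpolated linearly between surrounding concentrations. Here, GI50 denotes the concentration required for 50% inhibition of growth.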 Activity calls are given as the source filed them. No stated cut-off is given here; in the data, active = GI50 up to about 1.1 µM and inactive = higher.

Legend:
Assay in all cases: NCI-60 cell line screen, 48 h
MDA-MB-231 = test system: MDA-MB-231
UO-31 = test system: UO-31
HCT-15 = test system: HCT-15
NCI/ADR-RES = test system: NCI/ADR-RES
SK-MEL-5 = test system: SK-MEL-5
SR = test system: SR
HOP-62 = test system: HOP-62
NCI-H460 = test system: NCI-H460
RXF 393 = test system: RXF 393
CAKI-1 = test system: CAKI-1
U-251 = test system: U-251
DU-145 = test system: DU-145
OVCAR-4 = test system: OVCAR-4
NCI-H522 = test system: NCI-H522
HCT-116 = test system: HCT-116
PC-3 = test system: PC-3
A549 = test system: A549
SK-MEL-28 = test system: SK-MEL-28
HT-29 = test system: HT-29
Malme-3M = test system: Malme-3M

Compound | GI50 (MDA-MB-231) | GI50 (UO-31) | GI50 (HCT-15) | GI50 (NCI/ADR-RES) | GI50 (SK-MEL-5) | GI50 (SR) | GI50 (HOP-62) | GI50 (NCI-H460) | GI50 (RXF 393) | GI50 (CAKI-1) | GI50 (U-251) | GI50 (DU-145) | GI50 (OVCAR-4) | GI50 (NCI-H522) | GI50 (HCT-116) | GI50 (PC-3) | GI50 (A549) | GI50 (SK-MEL-28) | GI50 (HT-29) | GI50 (Malme-3M)
O=C(OCC(OC(=O)c1ccccc1)C1CC(C(O)C2CCCCC2)C(=O)O1)c1ccccc1 (stereo unspecified) | > 100 µM (inactive) | > 100 µM (inactive) | 43.2 µM | 23.2 µM (inactive) | 17.3 µM (inactive) | 20.1 µM (inactive) | 49.5 µM (inactive) | 25.9 µM (inactive) | > 100 µM (inactive) | > 100 µM (inactive) | 71.6 µM (inactive) | > 100 µM (inactive) | 32.7 µM (inactive) | 22.2 µM (inactive) | 31.6 µM (inactive) | 45.7 µM (inactive) |  |  |  | 
COc1cccc2c1C(=O)c1c(O)c3c(c(O)c1C2=O)C[C@H](O)C[C@@H]3OC1CC(N)C(O)C(C)O1 (stereo partly specified) | 1.78 µM (inactive) | 2.24 µM (inactive) | 11.5 µM | 13.4 µM (inactive) | 0.522 µM (active) | < 0.01 µM (active) | 1.49 µM (inactive) | < 0.01 µM (active) | 6.58 µM (inactive) | 1.08 µM (active) |  | 1.76 µM (inactive) | 4.36 µM (inactive) | 1.57 µM (inactive) | 0.245 µM (active) | 2.09 µM (inactive) | 1.98 µM (inactive) | 1.7 µM (inactive) | 2.09 µM (inactive) | 0.843 µM (active)
COc1cc2c(cc1OC)C(=O)N(c1ccc(OCCN3CCCC3)cc1)C2 | > 100 µM (inactive) |  | > 100 µM | > 100 µM (inactive) | > 100 µM (inactive) | > 100 µM (inactive) | > 100 µM (inactive) | > 100 µM (inactive) | > 100 µM (inactive) | > 100 µM (inactive) | > 100 µM (inactive) | > 100 µM (inactive) | > 100 µM (inactive) | > 100 µM (inactive) | > 100 µM (inactive) | > 100 µM (inactive) | > 100 µM (inactive) | > 100 µM (inactive) | > 100 µM (inactive) | > 100 µM (inactive)
CC(=O)C(C(=O)C(C)(C)C)C(=O)C(C)(C)C | > 100 µM (inactive) | > 100 µM (inactive) | > 100 µM | > 100 µM (inactive) | > 100 µM (inactive) | > 100 µM (inactive) | > 100 µM (inactive) | > 100 µM (inactive) | > 100 µM (inactive) | > 100 µM (inactive) | > 100 µM (inactive) | > 100 µM (inactive) | > 100 µM (inactive) | > 100 µM (inactive) | > 100 µM (inactive) | > 100 µM (inactive) | > 100 µM (inactive) | > 100 µM (inactive) |  | > 100 µM (inactive)
CC1=CC(C)(C)[C@H]2O[C@@]3(O)C[C@]4(C)[C@H]5C[C@@](C(C)C)(O[C@H]4c4ccoc4)O[C@H]4[C@]5(C3)O[C@@]1(O)[C@]24O | 81.3 µM (inactive) | > 100 µM (inactive) | > 100 µM | > 100 µM (inactive) | 44.2 µM (inactive) | > 100 µM (inactive) | 23.5 µM (inactive) |  | > 100 µM (inactive) | > 100 µM (inactive) | 74 µM (inactive) | > 100 µM (inactive) | 54.2 µM (inactive) | 5.26 µM (inactive) | 61.8 µM (inactive) | > 100 µM (inactive) | 75.9 µM (inactive) | 81.8 µM (inactive) | > 100 µM (inactive) | 40.9 µM (inactive)
COc1ccc(CCNC(=O)[C@H]2CCCC[C@@H]2CCO)cc1OC | > 100 µM (inactive) | 54.7 µM (inactive) | > 100 µM | > 100 µM (inactive) | > 100 µM (inactive) | > 100 µM (inactive) | > 100 µM (inactive) | > 100 µM (inactive) | > 100 µM (inactive) | > 100 µM (inactive) | > 100 µM (inactive) | > 100 µM (inactive) | > 100 µM (inactive) | > 100 µM (inactive) | > 100 µM (inactive) | > 100 µM (inactive) | > 100 µM (inactive) | > 100 µM (inactive) | > 100 µM (inactive) | 
OCC(CCc1ccccc1I)C1=CCC2(CC1)OCCO2 (stereo unspecified) | 23.9 µM (inactive) | 17.8 µM (inactive) | 21.9 µM | 20.8 µM (inactive) | 14.6 µM (inactive) | 45.6 µM (inactive) | 18.2 µM (inactive) | 26.5 µM (inactive) | 14.9 µM (inactive) | 24.7 µM (inactive) | 19.7 µM (inactive) | 19.5 µM (inactive) | 18.9 µM (inactive) | 15.2 µM (inactive) |  | 22.4 µM (inactive) | 19.8 µM (inactive) | 17.7 µM (inactive) | 18.2 µM (inactive) | 17.8 µM (inactive)
Cc1ccc(S(=O)(=O)NCc2cccc([N+](=O)[O-])c2)cc1 | > 100 µM (inactive) |  | > 100 µM | > 100 µM (inactive) | > 100 µM (inactive) | 5.3 µM (inactive) | > 100 µM (inactive) | > 100 µM (inactive) | > 100 µM (inactive) | > 100 µM (inactive) | > 100 µM (inactive) | > 100 µM (inactive) | > 100 µM (inactive) | 64.6 µM (inactive) | > 100 µM (inactive) | > 100 µM (inactive) | > 100 µM (inactive) | > 100 µM (inactive) | > 100 µM (inactive) | > 100 µM (inactive)
[O-]/[N+](=N\c1ccccc1CO)c1ccccc1CO | > 100 µM (inactive) | > 100 µM (inactive) | > 100 µM | > 100 µM (inactive) | > 100 µM (inactive) | > 100 µM (inactive) |  | > 100 µM (inactive) | > 100 µM (inactive) | > 100 µM (inactive) | > 100 µM (inactive) | > 100 µM (inactive) | > 100 µM (inactive) | > 100 µM (inactive) | > 100 µM (inactive) | > 100 µM (inactive) | > 100 µM (inactive) | > 100 µM (inactive) | > 100 µM (inactive) | > 100 µM (inactive)
Cc1ccc(/C=N/Nc2ccc3ccccc3n2)s1 | 15.5 µM (inactive) | > 100 µM (inactive) | 12 µM | 35.5 µM (inactive) | 9.4 µM (inactive) | 22.2 µM (inactive) | 20.8 µM (inactive) |  | 37.7 µM (inactive) | > 100 µM (inactive) | 21.1 µM (inactive) | > 10 µM (inactive) | 20.7 µM (inactive) | 15.7 µM (inactive) | 7.78 µM (inactive) | 13.2 µM (inactive) | 14.3 µM (inactive) | 17.2 µM (inactive) | 7.46 µM (inactive) | 14.9 µM (inactive)
CC(=O)CC(OC(C)=O)C1=CCC2C(CC1C)OC(=O)C2C (stereo unspecified) | > 100 µM (inactive) |  | > 100 µM | > 100 µM (inactive) | > 100 µM (inactive) | 78.9 µM (inactive) | > 100 µM (inactive) | > 100 µM (inactive) | > 100 µM (inactive) | > 100 µM (inactive) | > 100 µM (inactive) | > 100 µM (inactive) | > 100 µM (inactive) | > 100 µM (inactive) | > 100 µM (inactive) | > 100 µM (inactive) | > 100 µM (inactive) | > 100 µM (inactive) | > 100 µM (inactive) | > 100 µM (inactive)
CNC(=O)OCc1c(COC(=O)NC)c(-c2ccc(Cl)c(Cl)c2)n2c1SCC2 | 10.8 µM (inactive) | 7.46 µM (inactive) | 13 µM | 16 µM (inactive) | 13.5 µM (inactive) | 2.33 µM (inactive) | 17.8 µM (inactive) | 9.04 µM (inactive) | 3.31 µM (inactive) | 4.22 µM (inactive) | 7.85 µM (inactive) | 17.2 µM (inactive) |  | 8.85 µM (inactive) | 11.5 µM (inactive) | 17.1 µM (inactive) | 23.2 µM (inactive) | 10.8 µM (inactive) | 10 µM (inactive) | 22.7 µM (inactive)
COc1cc(O)c2c(=O)cc(-c3ccc(O)cc3O)oc2c1CC=C(C)C [ARTOCARPETIN A] | 22.1 µM (inactive) | 17.9 µM (inactive) | 11.6 µM | 27 µM (inactive) | 18.3 µM (inactive) | 4.5 µM (inactive) |  | 14.3 µM (inactive) | 6.3 µM (inactive) | 17.1 µM (inactive) | 17.1 µM (inactive) | 30.2 µM (inactive) | 13.1 µM (inactive) | 16 µM (inactive) | 18.1 µM (inactive) | 12.9 µM (inactive) | 14.2 µM (inactive) | 29.1 µM (inactive) | 4.35 µM (inactive) | 16.3 µM (inactive)
Nc1nnc(-c2ccco2)c(-c2ccco2)n1 | > 100 µM (inactive) | 49.9 µM (inactive) | > 100 µM | > 100 µM (inactive) | > 100 µM (inactive) | > 100 µM (inactive) |  | > 100 µM (inactive) | > 100 µM (inactive) | > 100 µM (inactive) | > 100 µM (inactive) | > 100 µM (inactive) | > 100 µM (inactive) | > 100 µM (inactive) | > 100 µM (inactive) | > 100 µM (inactive) | > 100 µM (inactive) | > 100 µM (inactive) | > 100 µM (inactive) | > 100 µM (inactive)
C[C@@]12CCC3C1C=C1C(=O)c4cc(O)ccc4C(=O)[C@]1(O2)[C@@]3(C)C=O | 8.71 µM (inactive) | 4.9 µM (inactive) | 2.66 µM | 9.31 µM (inactive) | 7.29 µM (inactive) | 1.58 µM (inactive) | 8.59 µM (inactive) | 2.85 µM (inactive) | 4.3 µM (inactive) | 4.09 µM (inactive) | 9.44 µM (inactive) | 2.91 µM (inactive) | 6.22 µM (inactive) | 2.94 µM (inactive) | 3.52 µM (inactive) | 7.8 µM (inactive) | 12 µM (inactive) |  | 4.67 µM (inactive) | 
